Source: patent publication US10702498B2 (priority 2015, dated 2020)
Where two headings read alike, the source gives them in different places.

Columns and labels:
humanDOR = humanDOR (Homo sapiens (Human), UniProt P41143); experiment: Receptor binding, [3H]diprenorphine
hKOR = hKOR (Homo sapiens (Human), UniProt P41145); experiment: Receptor binding, [3H]diprenorphine
μOR = μOR (Homo sapiens (Human), UniProt P35372); experiment: cell-based; assay type: cell-based
[1] = molecular target: human μOR β-arrestin2 recruitment + GRK2 (Homo sapiens (Human), UniProt P35372); experiment: β-Arrestin2 recruitment with GRK2 co-expression (BRET); assay type: cell-based; details: GRK2 co-expressed
[2] = molecular target: μOR β-arrestin2 recruitment (Homo sapiens (Human), UniProt P35372); experiment: β-Arrestin2 recruitment without GRK2 co-expression (BRET); assay type: cell-based
[3] = read-out: binding affinity Ki [nM] hDOR

humanDOR, sequence (P41143 whole entry): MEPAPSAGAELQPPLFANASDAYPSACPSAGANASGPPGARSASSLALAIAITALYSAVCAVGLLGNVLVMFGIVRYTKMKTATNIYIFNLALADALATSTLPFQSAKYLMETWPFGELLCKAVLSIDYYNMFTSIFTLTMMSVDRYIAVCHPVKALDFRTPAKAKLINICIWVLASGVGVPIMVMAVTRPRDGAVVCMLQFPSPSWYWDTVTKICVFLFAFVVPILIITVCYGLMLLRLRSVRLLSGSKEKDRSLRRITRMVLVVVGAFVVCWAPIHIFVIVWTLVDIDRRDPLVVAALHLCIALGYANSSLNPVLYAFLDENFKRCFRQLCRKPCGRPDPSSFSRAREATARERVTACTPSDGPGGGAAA
hKOR, sequence (P41145 whole entry): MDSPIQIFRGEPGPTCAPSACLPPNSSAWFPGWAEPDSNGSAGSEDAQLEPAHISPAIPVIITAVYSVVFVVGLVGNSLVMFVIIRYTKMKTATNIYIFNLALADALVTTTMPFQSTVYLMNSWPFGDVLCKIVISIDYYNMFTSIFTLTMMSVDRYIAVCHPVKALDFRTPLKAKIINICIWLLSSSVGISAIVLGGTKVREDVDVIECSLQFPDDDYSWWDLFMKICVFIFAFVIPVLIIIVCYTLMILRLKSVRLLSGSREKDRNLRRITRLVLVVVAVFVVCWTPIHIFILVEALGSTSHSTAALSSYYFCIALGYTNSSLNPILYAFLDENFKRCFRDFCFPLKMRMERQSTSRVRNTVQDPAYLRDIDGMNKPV

| Compound | Ki (humanDOR) | Arrestin + GRK2 pEC50 [1] | Gi/o pEC50 (μOR) | further results |
| --- | --- | --- | --- | --- |
| C[C@H](Cc1ccsc1)NC(=O)NC[C@H](Cc1ccccc1)N(C)C (stereo in doubt) [BD 127LR] | 1800 ± 150 nM | – | – | Ki (humanDOR; [3]): 1800 nM; Ki (hKOR; binding affinity Ki [nM] hKOR): 1300 nM; Ki (hKOR; hKOR [3H]dyprenorphine Ki): 1300 ± 300 nM |
| C[C@H](Cc1ccsc1)NC(=O)NC[C@H](Cc1ccc(O)cc1)N(C)C [(S,R)-21, 1-[(S)-2-(Dimethylamino)-3-(4-hydroxyphenyl)propyl]-3-((R)-1-(thiophen-3-yl)propan-2-yl)urea] | – | – | – | Gi/o activation / μOR agonist activity (μOR): more potent partial agonist of the μOR as compared to (S,S)-21 |
| C[C@@H](Cc1ccsc1)NC(=O)NC[C@H](Cc1ccccc1)N(C)C [(S,S)-12, 1-[(S)-2-(Dimethylamino)-3-phenylpropyl]-3-[(S)-1-(thiophen-3-yl)propan-2-yl]urea] | – | – | – | Gi/o activation / μOR agonist activity (μOR): most potent and efficacious Gi/o signaling agonist among the four isomers |
| CN(CCCl)[C@H](CNC(=O)NCCc1ccccc1)Cc1ccc(O)cc1 [DD185, (S)-1-(2-((2-chloroethyl)(methyl)amino)-3-(4-hydroxyphenyl)propyl)-3-phenethylurea] | 360 nM | – | – | – |
| CN(C)[C@H](CNC(=O)NC(C)(C)Cc1ccsc1)Cc1ccc(O)cc1 [DD 32L, (S)-1-(2-(dimethylamino)-3-(4-hydroxyphenyl)propyl)-3-(2-methyl-1-(thiophen-3-yl)propan-2-yl)urea] | – | 7.306 | 7.629 | Arrestin pEC50 [2]: 8.282 |
| CN(C)[C@H](CNC(=O)NC(C)(C)Cc1ccccc1)Cc1ccc(O)cc1 [DD 33L, (S)-1-(2-(dimethylamino)-3-(4-hydroxyphenyl)propyl)-3-(2-methyl-1-phenylpropan-2-yl)urea] | – | 6.874 | 7.008 | – |
| C[C@@H](Cc1ccsc1)NC(=O)NC[C@H](Cc1cccc(O)c1)N(C)C [DD 47LS, 1-((S)-2-(dimethylamino)-3-(3-hydroxyphenyl)propyl)-3-((S)-1-(thiophen-3-yl)propan-2-yl)urea] | – | 6.676 | 7.77 | Arrestin pEC50 [2]: 6.447 |
| C[C@H](NC(=O)NC[C@H](Cc1ccc(O)cc1)N(C)C)c1ccccc1 [DD 53LS, 1-((S)-2-(dimethylamino)-3-(4-hydroxyphenyl)propyl)-3-((S)-1-phenylethyl)urea] | – | 7.059 | 8.512 | Arrestin pEC50 [2]: 7.168 |
| C[C@@H](Cc1ccccc1)NC(=O)NC[C@H](Cc1ccc(O)cc1)N(C)C [DD 61L-B, 1-((S)-2-(dimethylamino)-3-(4-hydroxyphenyl)propyl)-3-((S)-1-phenylpropan-2-yl)urea] | – | 6.556 | 7.45 | Arrestin pEC50 [2]: 7.075 |
| C=CCN(CC(Cc1ccccc1)N(C)C)C(=O)N[C@@H](C)Cc1ccsc1 (some centres unmarked) [DD 93A] | – | – | – | Ki (humanDOR; [3]): ~15000 nM |
| C=CCN(CC(Cc1ccccc1)N(C)C)C(=O)N[C@H](C)Cc1ccsc1 (some centres unmarked) [DD 93B] | – | – | – | Ki (humanDOR; [3]): ~15000 nM |
| CN(C)[C@H](CNC(=O)NCCc1cn(Cc2ccccc2)nn1)Cc1ccc(O)cc1 [DD 154, (S)-1-(2-(1-benzyl-1H-1,2,3-triazol-4-yl)ethyl)-3-(2-(dimethylamino)-3-(4-hydroxyphenyl)propyl)urea] | 580 nM | – | – | – |
| CN(C)[C@H](CNC(=O)NCCc1cn(CCOCCOCCN=[N+]=[N-])nn1)Cc1ccc(O)cc1 [DD 161, (S)-1-(2-(1-(2-(2-(2-azidoethoxy)ethoxy)ethyl)-1H-1,2,3-triazol-4-yl)ethyl)-3-(2-(dimethylamino)-3-(4-hydroxyphenyl)propyl)urea] | 3000 nM | – | – | Ki (hKOR): 1200 nM |
| CN(C)[C@H](CNC(=O)NCCc1cn(CCOCCOCCOCCN=[N+]=[N-])nn1)Cc1ccc(O)cc1 [DD 165, (S)-1-(2-(1-(2-(2-(2-(2-azidoethoxy)ethoxy)ethoxy)ethyl)-1H-1,2,3-triazol-4-yl)ethyl)-3-(2-(dimethylamino)-3-(4-hydroxyphenyl)propyl)urea] | 3900 nM | – | – | Ki (hKOR; binding affinity Ki [nM] hKOR): 2900 nM |
| CN(CC1CC1)[C@H](CNC(=O)NCCc1ccccc1)Cc1ccc(O)cc1 [DD 184] | – | – | 6.253 | – |
